System: KRAS patient-derived spheroids with HUVEC/MSC, viability
Assay: Anticancer human tumor 323965-272-R-J2-PDC patient-derived pancreatic carcinoma cell line growth inhibition [KRAS2]
Settings: for IC50: curve of first compound; for viability, T/C: stronger effect = lower value
Outline: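 Combination screen of spheroid viability in tumor-cell co-cultures with endothelial (HUVEC) and mesenchymal stem cell stroma. Each agent was tested in half-log dilutions, topping at clinical Cmax or at 10 microM without a known Cmax.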
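Note: spheroids exposed to agents for 7 days.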
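Throughout, for viability, T/C: 100% = DMSO vehicle control viability.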

SMILES: CC(=O)Nc1cccc(-n2c(=O)n(C3CC3)c(=O)c3c(Nc4ccc(I)cc4F)n(C)c(=O)c(C)c32)c1 + C=CC(=O)N1CCN(c2nc(OCC3CCCN3C)nc3c2CCN(c2cccc4cccc(C)c24)C3)CC1CC#N
- IC50 (second compound 0.0316 µM): 1.71 nM
- IC50 (second compound 0.1 µM): 0.644 nM
- IC50 (second compound 0.316 µM): 0.255 nM
- IC50 (second compound 1 µM): 0.361 nM
- IC50 (second compound 3.16 µM): < 0.1 nM
- viability, T/C (second compound 0.0316 µM, first compound 0.0001 µM): 62.1%
- viability, T/C (second compound 0.0316 µM, first compound 0.000316 µM): 63.8%
- viability, T/C (second compound 0.0316 µM, first compound 0.001 µM): 53.4%
- viability, T/C (second compound 0.0316 µM, first compound 0.00316 µM): 44%
- viability, T/C (second compound 0.0316 µM, first compound 0.01 µM): 34.1%
- viability, T/C (second compound 0.0316 µM, first compound 0.0316 µM): 23.9%
- viability, T/C (second compound 0.1 µM, first compound 0.0001 µM): 64.4%
- viability, T/C (second compound 0.1 µM, first compound 0.000316 µM): 56.8%
- viability, T/C (second compound 0.1 µM, first compound 0.001 µM): 46.8%
- viability, T/C (second compound 0.1 µM, first compound 0.00316 µM): 35.4%
- viability, T/C (second compound 0.1 µM, first compound 0.01 µM): 32.1%
- viability, T/C (second compound 0.1 µM, first compound 0.0316 µM): 22.7%
- viability, T/C (second compound 0.316 µM, first compound 0.0001 µM): 56.7%
- viability, T/C (second compound 0.316 µM, first compound 0.000316 µM): 46.6%
- viability, T/C (second compound 0.316 µM, first compound 0.001 µM): 43.6%
- viability, T/C (second compound 0.316 µM, first compound 0.00316 µM): 31.6%
- viability, T/C (second compound 0.316 µM, first compound 0.01 µM): 27.4%
- viability, T/C (second compound 0.316 µM, first compound 0.0316 µM): 18.8%
- viability, T/C (second compound 1 µM, first compound 0.0001 µM): 56.6%
- viability, T/C (second compound 1 µM, first compound 0.000316 µM): 53.8%
- viability, T/C (second compound 1 µM, first compound 0.001 µM): 40%
- viability, T/C (second compound 1 µM, first compound 0.00316 µM): 37.2%
- viability, T/C (second compound 1 µM, first compound 0.01 µM): 28.3%
- viability, T/C (second compound 1 µM, first compound 0.0316 µM): 18.9%
- viability, T/C (second compound 3.16 µM, first compound 0.0001 µM): 26%
- viability, T/C (second compound 3.16 µM, first compound 0.000316 µM): 28.5%
- viability, T/C (second compound 3.16 µM, first compound 0.001 µM): 17%
- viability, T/C (second compound 3.16 µM, first compound 0.00316 µM): 22.4%
- viability, T/C (second compound 3.16 µM, first compound 0.01 µM): 4.06%
- viability, T/C (second compound 3.16 µM, first compound 0.0316 µM): 5.52%

Reference: PubChem BioAssay AID1963869 (Molecular Pharmacology Branch, DTP, NCI, 2024)
